Test results from patent US20120220600A1, “N-Oxide of 3-(2,6-dichloro-3,5-dimethoxy-phenyl) -1--1-methyl-urea” (priority 2009, published 2012).
≈ marks a conversion by molar mass, not a printed value.

Key:
[1] = Ionization constants (pKa1/pKa2); assay type: physicochemical; conditions: ionization constant for acidity
Text: (§1) Certain physicochemical properties of the compounds, as measured, are provided below: […]

[2] = In vitro metabolic stability in human liver microsomes; assay type: in vitro ADME; conditions: for CLint Rank: 1 μM
Procedure: (§2) The metabolism of drugs occurs mainly in the liver, which contains a wide variety of metabolic enzymes at concentrations higher than those observed in other organs. Metabolic stability or clearance (CL), particularly hepatic clearance (CLh), is a factor in determining drug concentration in blood. Generally, the higher the metabolic stability of a compound is, the lower the clearance of the compound.
(§3) The metabolic stability of each of Compounds 1 and 2 were determined at a concentration of 1 μM in mouse, rat, dog, monkey and human hepatic microsomal preparations. The compound tested, microsomal protein, and co-factors were combined, in duplicate, and incubated under appropriate conditions. Aliquots were removed at 0, 10 and 30 min, centrifuged and the supernatants analyzed by LC/MS/MS. Based on the percentage of the test compound remaining relative to the 0 min time point, the in vitro elimination rate constant, in vitro half-life (t1/2) and in vitro intrinsic clearance (CLint) parameters were calculate which allow for predicting the CLh values.

[3] = In vitro metabolic stability in dog liver microsomes; assay type: in vitro ADME; conditions: for microsomal CLint at 1 μM: dog, liver microsomes
Procedure: as §2, §3

[4] = Permeability across Caco-2 cell monolayers; assay type: in vitro ADME, human; conditions: human, Caco-2, 10 μM, pH 7.4, 120 min; for Papp A→B at 120 min, 10 μM / Papp B→A at 120 min, 10 μM: 37° C.; for Papp A→B at 120 min, 10 μM: apical to basolateral; for Papp B→A at 120 min, 10 μM: basolateral to apical; for efflux ratio at 120 min, 10 μM: read-out: Papp B-A/A-B
Procedure: (§4) The permeability of Compounds 1 and 2 across the intestinal barrier and the involvement of drug efflux transporters such as P-glycoprotein (P-gp, MDR-1) were assessed in vitro using the Caco-2 cell line. […] Caco-2 cells were seeded on PET (polyethylene terephthalate) filters in a 96 well format and cultured for 18-25 days to develop monolayers. Test compound solutions (10 μM in transport buffer) were added to either the apical (A) or basolateral (B) side of the Caco-2 cell monolayer to measure the membrane permeability from the A to B compartments [Papp(A-B)] or from the B to A compartments [Papp(B-A]. The assay was carried out in HBSS (Hank's Balanced Salts) buffer, pH 7.4 (for both sides) for 120 min at 37° C. Samples were taken from apical or basolateral compartments at scheduled times (0 min and 120 min) and quantified by LC/MS/MS. The results are presented in Table 4.

Caco-2 cell monolayers = test: Permeability across Caco-2 cell monolayers; assay type: in vitro ADME, human; conditions: for Mechanism: Caco-2, based on B-A/A-B and clogP; for Permeability Ranking: Caco-2, based on Papp A-B
Procedure: as §4

hERG channels = target: T1, hERG channels (Homo sapiens, UniProt Q12809); test: hERG radioligand binding assay ([3H]dofetilide competition); conditions: [3H]dofetilide binding, HEK293 cell membranes stably transfected with hERG
T1 construct: expressed in transfected cells; host or cells: HEK293 (stably transfected), membrane preparation
T1 sequence (Q12809 whole entry): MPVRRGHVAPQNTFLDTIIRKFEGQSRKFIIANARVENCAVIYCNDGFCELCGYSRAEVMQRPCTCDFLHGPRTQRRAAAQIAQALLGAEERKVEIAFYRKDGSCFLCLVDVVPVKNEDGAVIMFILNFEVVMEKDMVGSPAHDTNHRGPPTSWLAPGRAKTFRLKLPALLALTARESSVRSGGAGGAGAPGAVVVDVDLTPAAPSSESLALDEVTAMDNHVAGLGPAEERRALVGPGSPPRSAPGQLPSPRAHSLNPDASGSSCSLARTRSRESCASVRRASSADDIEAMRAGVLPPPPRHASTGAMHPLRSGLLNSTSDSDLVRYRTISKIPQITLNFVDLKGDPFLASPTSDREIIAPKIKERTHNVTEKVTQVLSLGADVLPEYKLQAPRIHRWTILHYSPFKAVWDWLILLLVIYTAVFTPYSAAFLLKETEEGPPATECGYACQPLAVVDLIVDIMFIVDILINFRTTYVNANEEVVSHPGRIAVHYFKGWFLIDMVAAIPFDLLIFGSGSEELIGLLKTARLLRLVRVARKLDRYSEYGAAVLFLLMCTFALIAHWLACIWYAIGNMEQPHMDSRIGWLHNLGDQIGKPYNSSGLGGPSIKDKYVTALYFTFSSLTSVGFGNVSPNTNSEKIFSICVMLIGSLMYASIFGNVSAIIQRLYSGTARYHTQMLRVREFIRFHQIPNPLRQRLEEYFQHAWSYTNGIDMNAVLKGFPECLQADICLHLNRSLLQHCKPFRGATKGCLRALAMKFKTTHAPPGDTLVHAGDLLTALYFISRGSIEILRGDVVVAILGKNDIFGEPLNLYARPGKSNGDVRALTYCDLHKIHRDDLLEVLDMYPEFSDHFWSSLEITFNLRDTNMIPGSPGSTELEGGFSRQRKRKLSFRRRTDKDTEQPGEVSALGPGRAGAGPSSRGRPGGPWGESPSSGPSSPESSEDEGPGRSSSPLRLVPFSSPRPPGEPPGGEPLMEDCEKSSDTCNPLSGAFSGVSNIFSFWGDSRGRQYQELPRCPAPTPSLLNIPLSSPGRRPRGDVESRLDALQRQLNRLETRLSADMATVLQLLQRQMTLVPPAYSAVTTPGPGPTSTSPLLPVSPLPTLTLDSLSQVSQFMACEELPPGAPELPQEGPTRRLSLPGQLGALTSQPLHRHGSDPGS
Procedure: The ability of Compounds 1 and 2 to inhibit the hERG (potassium channel) activity was tested using a radioligand binding assay in which test compounds competed for [^3H]dofetilide binding to a membrane preparation of HEK293 cell membranes stably transfected with hERG channels.

[5] = Solubility in buffer (pH 1); assay type: physicochemical; conditions: pH 1, aqueous buffer
Text: as §1

[6] = In vitro metabolic stability in mouse liver microsomes; assay type: in vitro ADME; conditions: for microsomal CLint at 1 μM: mouse, liver microsomes
Procedure: as §2, §3

[7] = In vitro metabolic stability in monkey liver microsomes; assay type: in vitro ADME; conditions: for microsomal CLint at 1 μM: monkey, liver microsomes
Procedure: as §2, §3

[8] = In vitro metabolic stability in rat liver microsomes; assay type: in vitro ADME; conditions: for microsomal CLint at 1 μM: rat, liver microsomes
Procedure: as §2, §3

Q: With CC[N+]1([O-])CCN(c2ccc(Nc3cc(N(C)C(=O)Nc4c(Cl)c(OC)cc(OC)c4Cl)ncn3)cc2)CC1 [Compound 1, N-Oxide of 3-(2,6-Dichloro-3,5-dimethoxy-phenyl)-1-{6-[4-(4-ethyl-piperazin-1-yl)-phenylamino]-pyrimidin-4-yl}-1-methyl-urea] as the molecule, how does the pKa1 [1] read?
A: 4.5

Q: And the pKa2 [1]?
A: 3.2

Q: And the half-life at 1 μM [2]?
A: 37.4 min

Q: And the microsomal CLint at 1 μM [2]?
A: 37.1 µL/min/mg

Q: And the “CLint Rank” value [2]?
A: low

Q: And the half-life at 1 μM [3]?
A: 30.1 min

Q: And the “CLint Rank” value ([3]; 1 μM)?
A: low

Q: What about the microsomal CLint at 1 μM ([3]; read-out: CLint) of the same molecule?
A: 46.1 µL/min/mg

Q: And the Papp A→B at 120 min, 10 μM [4]?
A: 0.47 ×10⁻⁶ cm/s

Q: And the Papp B→A at 120 min, 10 μM [4]?
A: 9.51 ×10⁻⁶ cm/s

Q: What about the efflux ratio at 120 min, 10 μM [4] of the same molecule?
A: 20.2

Q: And the Mechanism (Caco-2 cell monolayers)?
A: Efflux (Efflux: B-A/A-B ≧3)

Q: What about the “Permeability Ranking” value (Caco-2 cell monolayers) of the same molecule?
A: Low

Q: And the IC50 (hERG channels)?
A: 10.2 µM

Q: And the solubility [5]?
A: 700 µM (≈ 404 µg/mL)

Q: What about the half-life at 1 μM [6] of the same molecule?
A: 55.2 min

Q: What about the “CLint Rank” value ([6]; 1 μM) of the same molecule?
A: low

Q: What about the microsomal CLint at 1 μM ([6]; read-out: CLint) of the same molecule?
A: 25.1 µL/min/mg

Q: And the half-life at 1 μM [7]?
A: 35.7 min

Q: And the “CLint Rank” value ([7]; 1 μM)?
A: low

Q: What about the microsomal CLint at 1 μM ([7]; read-out: CLint) of the same molecule?
A: 38.9 µL/min/mg

Q: And the half-life at 1 μM [8]?
A: 46.8 min

Q: What about the “CLint Rank” value ([8]; 1 μM) of the same molecule?
A: low

Q: And the microsomal CLint at 1 μM ([8]; read-out: CLint)?
A: 29.6 µL/min/mg

Q: With CCN1CCN(c2ccc(Nc3cc(N(C)C(=O)Nc4c(Cl)c(OC)cc(OC)c4Cl)ncn3)cc2)CC1 [Compound 2, 3-(2,6-Dichloro-3,5-dimethoxy-phenyl)-1-{6-[4-(4-ethyl-piperazin-1-yl)-phenylamino]-pyrimidin-4-yl}-1-methyl-urea] as the molecule, how does the pKa1 [1] read?
A: 8.2

Q: And the pKa2 [1]?
A: 3.4

Q: What about the half-life at 1 μM [2] of the same molecule?
A: 35.2 min

Q: And the microsomal CLint at 1 μM [2]?
A: 39.4 µL/min/mg

Q: And the “CLint Rank” value [2]?
A: low

Q: And the half-life at 1 μM [3]?
A: 3.5 min

Q: What about the microsomal CLint at 1 μM ([3]; read-out: CLint) of the same molecule?
A: 395 µL/min/mg

Q: What about the microsomal CLint at 1 μM ([3]; read-out: CLint Rank) of the same molecule?
A: > 150 µL/min/mg

Q: And the Papp A→B at 120 min, 10 μM [4]?
A: 1.69 ×10⁻⁶ cm/s

Q: What about the Papp B→A at 120 min, 10 μM [4] of the same molecule?
A: 1.59 ×10⁻⁶ cm/s

Q: And the efflux ratio at 120 min, 10 μM [4]?
A: 0.94

Q: And the Mechanism (Caco-2 cell monolayers)?
A: Passive

Q: And the “Permeability Ranking” value (Caco-2 cell monolayers)?
A: Medium

Q: And the IC50 (hERG channels)?
A: 3 µM

Q: And the solubility [5]?
A: 2000 µM (≈ 1120 µg/mL)

Q: What about the half-life at 1 μM [6] of the same molecule?
A: 10.3 min

Q: What about the microsomal CLint at 1 μM ([6]; read-out: CLint) of the same molecule?
A: 134 µL/min/mg

Q: What about the microsomal CLint at 1 μM ([6]; read-out: CLint Rank) of the same molecule?
A: 50 to 150 µL/min/mg

Q: What about the half-life at 1 μM [7] of the same molecule?
A: 3.8 min

Q: What about the microsomal CLint at 1 μM ([7]; read-out: CLint) of the same molecule?
A: 364 µL/min/mg

Q: What about the microsomal CLint at 1 μM ([7]; read-out: CLint Rank) of the same molecule?
A: > 150 µL/min/mg

Q: And the half-life at 1 μM [8]?
A: 15.4 min

Q: What about the microsomal CLint at 1 μM ([8]; read-out: CLint) of the same molecule?
A: 90.3 µL/min/mg

Q: And the microsomal CLint at 1 μM ([8]; read-out: CLint Rank)?
A: 50 to 150 µL/min/mg
